Reference: PubChem BioAssay (NCI)
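The compound was tested at five concentrations on cells cultured in 96-well plates, with a 48-hour exposure period. TGI: concentration producing complete growth inhibition.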 Where a SMILES comes first, the peptide text is derived from it. [ ]: non-standard residue; d: D form. The star is where a group is joined. Boc = CC(C)(C)OC(=O)*; Lac = C[CH](O)C(=O)O; OBn = c1ccc(CO*)cc1

What follows are compounds tested on SR leukemia (assay: NCI-60 cell line screen, 48 h).
`CN(C)c1ccc(C2CC(c3ccc4ccccc4c3O)=NN2)cc1` (configuration not stated) showed a TGI of 51.7 µM.
Compound `CN1CCc2cc3c(c4c2C1C(O)c1ccccc1-4)OCO3` (configuration not stated) has a TGI of 28.8 µM.
Compound `C1=CC2(C=CC13O[C@H](C1CCCCC1)[C@@H](C1CCCCC1)O3)O[C@H](C1CCCCC1)[C@@H](C1CCCCC1)O2` has a TGI greater than 50 µM.
Compound `CC(OC(=O)C(Cc1ccccc1)NC(=O)C(Cc1ccccc1)NC(=O)OC(C)(C)C)C(=O)OCc1ccccc1` (stereo not drawn) (Boc-Phe-Phe-[Lac]-OBn; configuration not given here) has a TGI greater than 100 µM.

Each compound was assayed on SW-620 colon (assay: NCI-60 cell line screen, 48 h).
With `Cc1c(-c2ccc(O)cc2)n(CCCCCCNCCOC(=O)NCCCc2ccc(N(CCCl)CCCl)cc2)c2ccc(O)cc12` the TGI was 5.37 µM.
`COc1ccc(NC(=S)Nc2cc(C)cc(C)n2)cc1` was tested, and the TGI was greater than 100 µM.
For `CN(C)c1ccc(C2CC(c3ccc4ccccc4c3O)=NN2)cc1` (configuration not stated), the TGI was greater than 100 µM.
With `CN1CCc2cc3c(c4c2C1C(O)c1ccccc1-4)OCO3` (configuration not stated) the TGI was greater than 100 µM.
`C1=CC2(C=CC13O[C@H](C1CCCCC1)[C@@H](C1CCCCC1)O3)O[C@H](C1CCCCC1)[C@@H](C1CCCCC1)O2` was tested, and the TGI was greater than 50 µM.

Each compound was assayed on T-47D breast (assay: NCI-60 cell line screen, 48 h).
Work on `CC1=NN(c2nc(N)nc(/C(C#N)=C/c3ccccc3O)n2)C(C)(C)C1` yielded a TGI of 31.9 µM.
`Cc1c(-c2ccc(O)cc2)n(CCCCCCNCCOC(=O)NCCCc2ccc(N(CCCl)CCCl)cc2)c2ccc(O)cc12` showed a TGI of 5.8 µM.
Compound `COc1ccc(NC(=S)Nc2cc(C)cc(C)n2)cc1` has a TGI greater than 100 µM.
`CN(C)c1ccc(C2CC(c3ccc4ccccc4c3O)=NN2)cc1` (configuration not stated) gave a TGI greater than 100 µM.
Compound `CN1CCc2cc3c(c4c2C1C(O)c1ccccc1-4)OCO3` (configuration not stated) has a TGI greater than 100 µM.
`C1=CC2(C=CC13O[C@H](C1CCCCC1)[C@@H](C1CCCCC1)O3)O[C@H](C1CCCCC1)[C@@H](C1CCCCC1)O2` showed a TGI greater than 50 µM.
`CC(OC(=O)C(Cc1ccccc1)NC(=O)C(Cc1ccccc1)NC(=O)OC(C)(C)C)C(=O)OCc1ccccc1` (stereo not drawn) (Boc-Phe-Phe-[Lac]-OBn; configuration not given here) showed a TGI greater than 100 µM.

The compounds below were run on TK-10 renal (assay: NCI-60 cell line screen, 48 h).
With `CC1=NN(c2nc(N)nc(/C(C#N)=C/c3ccccc3O)n2)C(C)(C)C1` the TGI was 58.4 µM.
Compound `Cc1c(-c2ccc(O)cc2)n(CCCCCCNCCOC(=O)NCCCc2ccc(N(CCCl)CCCl)cc2)c2ccc(O)cc12` has a TGI of 6.06 µM.
For `COc1ccc(NC(=S)Nc2cc(C)cc(C)n2)cc1`, the TGI was greater than 100 µM.
With `CN(C)c1ccc(C2CC(c3ccc4ccccc4c3O)=NN2)cc1` (configuration not stated) the TGI was greater than 100 µM.
Work on `CN1CCc2cc3c(c4c2C1C(O)c1ccccc1-4)OCO3` (configuration not stated) yielded a TGI greater than 100 µM.
`C1=CC2(C=CC13O[C@H](C1CCCCC1)[C@@H](C1CCCCC1)O3)O[C@H](C1CCCCC1)[C@@H](C1CCCCC1)O2` gave a TGI greater than 50 µM.

These compounds were tested on U251 CNS (assay: NCI-60 cell line screen, 48 h).
In the case of `CC1=NN(c2nc(N)nc(/C(C#N)=C/c3ccccc3O)n2)C(C)(C)C1`, the TGI is reported as 41.3 µM.
In the case of `Cc1c(-c2ccc(O)cc2)n(CCCCCCNCCOC(=O)NCCCc2ccc(N(CCCl)CCCl)cc2)c2ccc(O)cc12`, the TGI is reported as 13.5 µM.
With `COc1ccc(NC(=S)Nc2cc(C)cc(C)n2)cc1` the TGI was greater than 100 µM.
Work on `CN(C)c1ccc(C2CC(c3ccc4ccccc4c3O)=NN2)cc1` (configuration not stated) yielded a TGI greater than 100 µM.
Work on `CN1CCc2cc3c(c4c2C1C(O)c1ccccc1-4)OCO3` (configuration not stated) yielded a TGI of 25.6 µM.
Work on `C1=CC2(C=CC13O[C@H](C1CCCCC1)[C@@H](C1CCCCC1)O3)O[C@H](C1CCCCC1)[C@@H](C1CCCCC1)O2` yielded a TGI greater than 50 µM.
With `CC(OC(=O)C(Cc1ccccc1)NC(=O)C(Cc1ccccc1)NC(=O)OC(C)(C)C)C(=O)OCc1ccccc1` (stereo not drawn) (Boc-Phe-Phe-[Lac]-OBn; configuration not given here) the TGI was greater than 100 µM.

What follows are compounds tested on UACC-257 melanoma (assay: NCI-60 cell line screen, 48 h).
With `CC1=NN(c2nc(N)nc(/C(C#N)=C/c3ccccc3O)n2)C(C)(C)C1` the TGI was 38.5 µM.
`Cc1c(-c2ccc(O)cc2)n(CCCCCCNCCOC(=O)NCCCc2ccc(N(CCCl)CCCl)cc2)c2ccc(O)cc12` gave a TGI of 3.57 µM.
Compound `COc1ccc(NC(=S)Nc2cc(C)cc(C)n2)cc1` has a TGI greater than 100 µM.
For `CN(C)c1ccc(C2CC(c3ccc4ccccc4c3O)=NN2)cc1` (configuration not stated), the TGI was greater than 100 µM.
`CN1CCc2cc3c(c4c2C1C(O)c1ccccc1-4)OCO3` (configuration not stated) gave a TGI of 26.3 µM.
Work on `C1=CC2(C=CC13O[C@H](C1CCCCC1)[C@@H](C1CCCCC1)O3)O[C@H](C1CCCCC1)[C@@H](C1CCCCC1)O2` yielded a TGI greater than 50 µM.

The compounds below were run on UACC-62 melanoma (assay: NCI-60 cell line screen, 48 h).
For `CC1=NN(c2nc(N)nc(/C(C#N)=C/c3ccccc3O)n2)C(C)(C)C1`, the TGI was 33.5 µM.
With `Cc1c(-c2ccc(O)cc2)n(CCCCCCNCCOC(=O)NCCCc2ccc(N(CCCl)CCCl)cc2)c2ccc(O)cc12` the TGI was 3.26 µM.
`COc1ccc(NC(=S)Nc2cc(C)cc(C)n2)cc1` gave a TGI greater than 100 µM.
In the case of `CN(C)c1ccc(C2CC(c3ccc4ccccc4c3O)=NN2)cc1` (configuration not stated), the TGI is reported as greater than 100 µM.
Work on `CN1CCc2cc3c(c4c2C1C(O)c1ccccc1-4)OCO3` (configuration not stated) yielded a TGI of 25.9 µM.
`C1=CC2(C=CC13O[C@H](C1CCCCC1)[C@@H](C1CCCCC1)O3)O[C@H](C1CCCCC1)[C@@H](C1CCCCC1)O2` gave a TGI greater than 50 µM.

The compounds below were run on UO-31 renal (assay: NCI-60 cell line screen, 48 h).
Compound `CC1=NN(c2nc(N)nc(/C(C#N)=C/c3ccccc3O)n2)C(C)(C)C1` has a TGI of 36.5 µM.
`COc1ccc(NC(=S)Nc2cc(C)cc(C)n2)cc1` showed a TGI greater than 100 µM.
`CN(C)c1ccc(C2CC(c3ccc4ccccc4c3O)=NN2)cc1` (configuration not stated) gave a TGI greater than 100 µM.
For `CN1CCc2cc3c(c4c2C1C(O)c1ccccc1-4)OCO3` (configuration not stated), the TGI was 34 µM.
Work on `C1=CC2(C=CC13O[C@H](C1CCCCC1)[C@@H](C1CCCCC1)O3)O[C@H](C1CCCCC1)[C@@H](C1CCCCC1)O2` yielded a TGI greater than 50 µM.
`CC(OC(=O)C(Cc1ccccc1)NC(=O)C(Cc1ccccc1)NC(=O)OC(C)(C)C)C(=O)OCc1ccccc1` (stereo not drawn) (Boc-Phe-Phe-[Lac]-OBn; configuration not given here) was tested, and the TGI was greater than 100 µM.
